Laboratory results reported in patent publication US20090076029A1 (Palatin Technologies, Inc., priority 2007, published 2009).
Where two headings read alike, the source gives them in different places. Square brackets hold non-standard residues; d marks the D form. * marks the point of attachment. dPhe(4-Cl) = N[C@H](Cc1ccc(Cl)cc1)C(=O)O; Heptanoyl = CCCCCCC(=O)*; Bn = c1ccc(C*)cc1

Legend:
[1] = biological target: T1, hMC5-R; assay: Competitive inhibition assay using [I125]-NDP-α-MSH, hMC5-R membranes; assay type: binding, human; details: read-out: Ki (nM) (NDP-α-MSH) MC5-R
T1 construct: expressed in transfected cells; host or cells: HEK-293
Experimental: (§1) Competitive inhibition assay using [1125]-NDP-α-MSH. A competitive inhibition binding assay was conducted using membranes prepared from HEK-293 cells transfected to express hMC3-R, hMC4-R or hMC5-R, and from B-16 mouse melanoma cells (containing MC1-R) using 0.2 to 0.4 nM [I^125]-NDP-α-MSH (New England Nuclear) in 50 mM HEPES buffer containing 1 mM MgCl2, 2 mM CaCl2, and 5 mM KCl, at pH 7.2. In certain experiments, HEK-293 cells transfected to express hMC1-R were also employed. The assay tube also contained a chosen concentration of the test compound of this invention, typically a 1 μM concentration, for determining inhibition of the binding of [^1125]-NDP-α-MSH to its receptor. Non-specific binding was measured by inhibition of binding of [I^125]-NDP-α-MSH in the assay with the presence of 1 μM α-MSH.
(§2) The assay mixture was incubated for 90 minutes at room temperature, then filtered and the membranes washed three times with ice cold buffer. The filter was dried and counted in a gamma counter for remaining radioactivity bound to the membranes. 100% specific binding was defined as the difference in radioactivity (cpm) bound to cell membranes in the absence and presence of 1 μM α-MSH. The cpm obtained in presence of test compounds were normalized with respect to 100% specific binding to determine the percent inhibition of [125]-NDP-α-MSH binding. Each assay was conducted in triplicate and the actual mean values are described, with results less than 0% reported as 0%.

[2] = biological target: T2, hMC3-R; assay: Competitive inhibition assay using [I125]-NDP-α-MSH, hMC3-R membranes; assay type: binding, human; details: read-out: Ki (nM) (NDP-α-MSH) MC3-R
T2 construct: expressed in transfected cells; host or cells: HEK-293
Experimental: as §1, §2

[3] = system: T3, hMC4-R; assay: cAMP functional assay in HEK-293 cells expressing MC4-R (agonist, neutral antagonist/Schild); assay type: cell-based, human; details: for intrinsic activity at MC4-R: NDP-α-MSH maximal stimulation = 1.0
T3 construct: expressed in transfected cells; host or cells: HEK-293
Experimental: General method for EC50 determination in functional activity assay. Functional evaluation of compounds at melanocortin receptors was performed by measuring the accumulation of intracellular cAMP in HEK-293 cells expressing hMC3-R, hMC4-R or hMC5-R, and in B-16 mouse melanoma cells expressing MC1-R. Cells suspended in Earle's Balanced Salt Solution containing 10 mM HEPES (pH 7.5), 5 mM MgCl2, 1 mM glutamine, 0.1% albumin and 0.6 mM 3-isobutyl-1-methyl-xanthine, a phosphodiesterase inhibitor, were plated in 96 well plates at a density of 0.5×10^5 cells per well. Cells were incubated with the test compounds in the presence or absence of α-MSH for 1 hour at 37° C. cAMP levels in the cell lysates were measured using an EIA kit (Amersham). Data analysis and EC50 values were determined using nonlinear regression analysis with Prism Graph-Pad software.
Functional status. The agonist/antagonist status with respect to MC1-R, MC-3R, MC4-R and MC5-R of certain compounds of the invention was determined.
Assay for agonist. Evaluation of the molecules to elicit a functional response in HEK-293 cells expressing MC4-R was accomplished by measuring the accumulation of intracellular cAMP following treatment. Confluent HEK-293 cells expressing MC4-R were detached by enzyme free cell suspension buffer. Cells were suspended in Earle's Balanced Salt Solution containing 10 mM HEPES (pH 7.5), 1 mM MgCl2, 1 mM glutamine, 0.5% albumin and 0.3 mM 3-isobutyl-1-methyl-xanthine (IBMX), a phosphodiesterase inhibitor. The cells were plated in 96 well plates at a density of 0.5×10^5 cells per well and pre-incubated for 30 minutes. The cells were then challenged with the test compounds dissolved in DMSO at a concentration range of 0.05-5000 nM in a total assay volume of 200 μL for 1 hour at 37° C. The concentration of DMSO was always held at 1% in the assay mixture. NDP-α-MSH was used as the reference agonist. At the end of the incubation period the cells were disrupted by the addition of 50 μL of lysis buffer from a cAMP EIA kit (Amersham). Complete rupture of the cells was obtained by pipetting the cells multiple times. cAMP levels in the cell lysates were measured after appropriate dilution using the EIA kit (Amersham) method. Data analysis and EC50 values were determined by using nonlinear regression analysis with Prism Graph-Pad software. […] FIG. 1 illustrates typical results, showing the stimulation of cAMP using the compound of Example 11 in HEK-293/MC4-R cells with comparison to NDP-α-MSH.
Assay for Neutral Antagonist. Compounds with a high affinity for binding to MC4-R membranes but with less potency in terms of cAMP accumulation (EC50>1000 nM) and low response ratio (<0.1) were analyzed for their ability to antagonize the stimulatory effect of the agonist NDP-α-MSH. These studies were carried out in HEK-293 cells expressing MC4-R. Cells were incubated with the compounds in the presence of the agonist NDP-α-MSH and the extent of antagonism was measured by the decrease in intracellular cAMP concentrations. Screening the compounds for antagonist activity was performed at a single concentration of NDP-α-MSH (1.0 nM) over a compound concentration range of 0.5-5000 nM.
Experimental details were similar to the analysis for agonistic activity described above. Briefly, cells were pre-incubated for 30 minutes with the test compounds at concentrations between 0.5 nM and 5000 nM. The cells were then stimulated with NDP-α-MSH at a concentration of 1 nM for 1 hour. For Schild's analysis, the interactions were studied using at least 3 concentrations of the compounds, separated by a log unit, over a full range of the agonist (0.005-5000 nM). cAMP levels were measured in the cell lysates after appropriate dilution. Nonlinear regression analysis with Prism Graph-Pad software was used for Schild analysis and to obtain EC50 values. pA2 values were derived from the Schild plot of the data.

[4] = biological target: T3, hMC4-R; assay: Competitive inhibition assay using [I125]-NDP-α-MSH, hMC4-R membranes; assay type: binding, human; details: for attenuation of binding of α-MSH and AgRP to MC4-R: both ligands (NDP-α-MSH and AgRP), summary
Experimental: as §1, §2

[5] = system: T3, hMC4-R; assay type: binding, human; details: for Inhibition at 1 μM (AgRP) MC4-R: 1 μM compound
Experimental: Competitive binding assay using [I^125]-AgRP (83-132). Competitive binding studies using [I^125]-AgRP (83-132) were carried out on membranes isolated from cells expressing hMC4-R. The assay was performed in 96 well GF/B Millipore multiscreen filtration plates (MAFB NOB10) pre-coated with 0.5% bovine serum albumin (Fraction V). The assay mixture contained 25 mM HEPES buffer (pH 7.5) with 100 mM NaCl, 2 mM CaCl2, 2 mM MgCl2, 0.3 mM 1,10-phenanthroline, 0.5% bovine serum albumin, cell membranes, radioligand [I^125]-AgRP (83-132) (NEN), and increasing concentrations of compounds in a total volume of 200 μL. Binding was measured at radioligand concentrations of 0.2 nM. After incubating for 1 hour at 37° C., the reaction mixture was filtered and washed with an assay buffer containing 500 mM NaCl. The dried discs were punched out from the plate and counted on a gamma counter. Care was taken to limit the specific binding of the ligand to an amount not exceeding 10% of the counts added to the reaction mixture. Data were analyzed using the Prism Graph-Pad curve fitting software.

[6] = biological target: T4, MC1-R; assay: Competitive inhibition assay using [I125]-NDP-α-MSH, MC1-R membranes; assay type: binding, mouse; details: for Inhibition at 1 μM (NDP-α-MSH) MC1-R: 1 μM compound
T4 construct: other: 1 μM compound
Experimental: as §1, §2

[7] = cAMP assay, read-out: EC50 (nM) at MC4-R
[8] = MC4-R membranes, Table 1, read-out: Ki (nM) I125-NPD-α-MSH
[9] = read-out: Ki (nM) (NDP-α-MSH) MC4-R
[10] = MC4-R membranes, Table 1, read-out: Ki (nM) I125-AgRP

Row | Molecule | Ki [1] | Ki [2] | functional status (pAg, Ag, Antag, Inactive) ([3]; MC4-R, Table 1) | EC50 ([3]; MC4-R, Table 1, read-out: EC50) | intrinsic activity at MC4-R [3] | EC50 [3, 7] | Ki [4, 8] | attenuation of binding of α-MSH and AgRP to MC4-R [4] | Ki [4, 9] | Inhibition at 1 μM (AgRP) MC4-R [5] | Ki [5, 10] | Ki ([5]; read-out: Ki (nM) (AgRP) MC4-R) | Ki [6] | Inhibition at 1 μM (NDP-α-MSH) MC1-R [6] | pA2 (M) ([3]; MC4-R antagonists, Table 1) | pA2 value at MC4-R ([3]; Schild plot vs NDP-α-MSH) | functional status at MC4-R ([3]; cAMP assay, mostly at 1 μM) | EC50 ([3]; MC4-R, Table 1 in μM, read-out: EC50)
1 | 7′-amino-heptanoyl-Ser(Bzl)-D-Phe(4-Cl)-Arg-S-(−)-1-(1-naphthyl)ethylamide [Example 17] | 313 nM | 125 nM | pAg (“pAg” means partial agonist) | 17 nM | 0.3 | 17 nM | 7 nM | attenuate the binding of both α-MSH and AgRP to MC4-R | 7 nM | 100% | 0.6 nM | 0.6 nM |  |  |  |  |  | 
2 | N=C(N)NCCC[C@H]1CN(CCc2ccc3ccccc3c2)CCN1C(=O)[C@H](N)Cc1ccc(Cl)cc1Cl [Example 18, N-{3-[(S)-1%-[(R)-2-Amino-3-(2,4-dichloro-phenyl)-propionyl]-4-(2-naphthalen-2-ylethyl)-piperazin-2-yl]-propyl}-guanidine] | 259 nM | 97 nM | pAg (“pAg” means partial agonist) | 22 nM | 0.4 | 22 nM | 3 nM | attenuate the binding of both α-MSH and AgRP to MC4-R | 3 nM | 100% | 1 nM | 1 nM | 1200 nM | 6% |  |  |  | 
3 | N=C(N)NCCC[C@H]1C(=O)N2C(CC[C@@H]2COc2ccc3ccccc3c2)N1C(=O)[C@@H](Cc1ccc(Cl)cc1Cl)NC(=O)[C@@H]1Cc2ccccc2CN1 (stereo partly drawn) [Example 23, (S)-1,2,3,4-Tetrahydro-isoquinoline-3-carboxylic acid {(R)-1-(2,4-dichloro-benzyl)-2-[(2S,5R)-2-(3-guanidino-propyl)-5-(naphthalen-2-yloxymethyl)-3-oxo-hexahydro-pyrrolo[1,2-a]imidazol-1-yl]-2-oxo-ethyl}-amide] | 26 nM | 42 nM | Antag (“Antag” means antagonist) |  |  |  | 1 nM |  | 1 nM | 100% | 1.2 nM | 1.2 nM |  |  | 8.086 | 8.0 | antagonist | 
4 | Heptanoyl-T(Bn)[dPhe(4-Cl)]RW-NH2 [Example 24] | 292 nM | 374 nM | pAg (“pAg” means partial agonist) |  | 0.4 | > 1000 nM | 21 nM | attenuate the binding of both α-MSH and AgRP to MC4-R | 21 nM | 90% | 69 nM | 69 nM |  |  |  |  |  | > 1000 nM
5 | NH2—(CH2)6—C(═O)-Ser(Bzl)-D-Phe(4-Cl)-Arg-Trp-Asp-Phe-NH2 [Example 15] | 405 nM | 76 nM | pAg (“pAg” means partial agonist) | 283 nM | 0.5 | 238 nM | 5 nM | attenuate the binding of both α-MSH and AgRP to MC4-R | 5 nM | 95% | 0.6 nM | 0.6 nM | 242 nM | 38% |  |  |  | 
6 | NH2—(CH2)6—C(═O)-Ser(Bzl)-D-Phe(4-Cl)-Arg-Trp-NH2 [Example 1] | 208 nM | 27 nM | pAg (“pAg” means partial agonist) | 296 nM | 0.3 | 296 nM |  | attenuate the binding of both α-MSH and AgRP to MC4-R | 1 nM |  |  | 8 nM | 351 nM | 33% |  |  |  | 
